# Read-outs that look alike come from different tables or passages of the source.
# Tests used:
# [1] = system: BALB/c-3T3 mouse fibroblasts; assay: 3T3 neutral red uptake phototoxicity assay; format: cell-based; details: for IC50: Mus musculus, BALB/c3T3, light or radiation study
# Method: Therefore, the compounds of the present disclosure were screened for phototoxicity using the 3T3 natural red uptake assay.
# In brief, BALB/c-3T3 mouse fibroblasts (originally obtained from ATCC) were seeded in 96-well plates at 12,000 cells per well, and grown for 24 hr. Test compounds and the positive control (chlorpromazine) were solubilized and serially diluted in DMSO. The negative control (histidine) was solubilized and diluted in HBSS. A dilution for all test articles was then made into HBSS at the final testing concentrations. At the start of the assay, the growth medium was removed from the plates and replaced with test agent dilution. Six replicates were used for each concentration. Cells were incubated in the dark with test article for 1 h, exposed to UVA light (2.5 J/cm2 over 18 min) and incubated 24 hrs. in the dark. A parallel non-irradiated plate was treated similarly, except it was stored in the dark, rather than illuminated.
# For Neutral Red staining, medium was removed and fresh medium containing 25 μg/mL of Neutral Red (Sigma) was added. After three hours incubation, the cells were washed with PBS, and the cellular dye was solubilized with 1% acetic acid in 50% ethanol. Cellular Neutral Red was measured by its absorbance at 540 nm.
# Data analysis: An IC50 (concentration that causes 50% reduction in viability) was calculated for each condition by linear interpolation.
# A Photo-Irritation Factor (PIF) was calculated: PIF=IC50(−Irr)/IC50(+Irr)
# PIF>5 indicates phototoxicity; 2<PIF<5 indicates probable phototoxicity; PIF<2 indicates no phototoxicity
# In addition, the Mean Photo Effect (MPE) was calculated by comparison of the complete concentration-response curves. MPE is a weighted average of the difference in response of equivalent doses normalized by the shift in IC50.
# MPE>0.15 indicates phototoxicity; 0.1<MPE<0.15 indicates probable phototoxicity; MPE<0.1 indicates no phototoxicity.
# [2] = system: ERK phosphorylation in HEKa cells; assay: phospho-ERK in HEKa cells following EGFR inhibitors (Western blot); format: cell-based, human
# Method: Human normal keratinocyte cells HEKa were purchased from Gibco Rhenium and seeded in 10 cm dishes (300,000 cells/dish) and incubated overnight at 37° C., 5% CO2. Next morning, the medium was replaced to a starvation medium for 2 hours and then the cells were treated for 2 additional hours with the test compounds. Post incubation, the cells were lyzed with RIPA and the protein extracts were analyzed by western blot for Phospho-ERK and total ERK. Untreated cells and 0.1% DMSO treated cells were used as negative control. HKGS growth factors was used as a positive control.
# Western blot: 7.5 μg of total extract was loaded on 10% acrylamide gel. Following transfer, the membranes were blocked with TBST/5% skimmed milk and then incubated with Mouse anti Phospho-ERK (1:1000 in TBST 5% BSA, ON at 4° C.) and goat anti Mouse HRP (1:10,000 in TBST 5% BSA, 1-hour RT). The membranes were exposed using SuperSignal West Pico Chemiluminescent Substrate.
# The HRP was then inactivated by incubating the membranes for 1 hour with 0.5% sodium azide Following washes and ECL exposure in order to ensure absence of signal, the membranes were re-blocked for 15 min with TBST/5% skimmed milk and then incubated with Rabbit anti total ERK2 (1:500 in TBST 5% BSA, ON at 4° C.), goat anti Rabbit HRP (1:5,000 in TBST 5% BSA, 1-hour RT) and finally exposed using the SuperSignal West Pico Chemiluminescent Substrate. The films were scanned and the signal were quantified using ImageJ software. The results were calculated as Phospho-ERK/total ERK.
# HKGS was used as a positive control.
# [3] = MPE>0.15 phototoxicity, 0.1-0.15 probable, <0.1 none
# [4] = non-irradiated, Neutral Red, read-out: Cell Viability IC50 Minus UVA
# [5] = PIF=IC50(−Irr)/IC50(+Irr), >5 phototoxicity, 2-5 probable, <2 none
SMILES,Comment (photo-toxicity assessment) [1],"Mean MPE [1, 3]","IC50 [1, 4] [µg/mL]","Mean PIF [1, 5]",also measured
"CN(C)CCCN1c2ccccc2Sc2ccc(Cl)cc21 [Chloropromazine, chlorpromazine]",Phototoxic,0.477,31,31.6,–
Cc1ccc2c(Nc3ccc(Cl)cc3)nccc2c1Nc1ncccc1-c1ncnc2[nH]cnc12 [Compound C-1],Non,–,–,–,"phototoxicity (3T3 NRU), stated in words [1]: did not show phototoxicity; IC50 ([1]; 0.3 h, read-out: Cell Viability IC50 Plus UVA): 18.1 µg/mL; IC50 ([1]; read-out: Cell Viability IC50 Minus UVA): 14 µg/mL; Mean MPE ([1]; mouse, 24 h): −0.011; Mean PIF ([1]; mouse, 24 h): 0.8"
"C#Cc1cccc(Nc2ncnc3cc(OCCOC)c(OCCOC)cc23)c1 [Erlotinib, erlotinib, reference compound]",–,–,–,–,phospho ERK compared to HKGS treated cells [2]: decreased
"N[C@@H](Cc1c[nH]cn1)C(=O)O [Histidine, histidine]",–,0.036,> 1000,1,"IC50 ([1]; 0.3 h, UVA 2.5 J/cm2 over 18 min, Neutral Red, read-out: Cell Viability IC50 Plus UVA): > 1000 µg/mL"
